Here are results for one molecule from patent US20030134779A1, “Method and composition for treatment and/or prevention of antibiotic-resistant microorganism infections” (priority 2002, published 2003).

What all share (format): cell-based, Staphylococcus aureus
For experiment [1], the system named is S. aureus PC-1. In words: Bacterial growth in MHB. The protocol:
(§1) The effect of LF or LFC at concentration sub-MICs alone or in combination with sub-MICs of antibiotics on bacterial growth rate of S. aureus, E. coli and K. pneumoniae was determined by monitoring bacterial cultures in MHB with the O.D.600 nm or by the count of colony forming unit per ml (cfu/ml). A volume of 2.5 ml of overnight cultures in MHB adjusted to 0.5-1 McFarland standard in saline were used to inoculate a final volume of 25 ml of fresh MHB containing the desired concentration of tested compounds. All flasks were then incubated at 37° C. with agitation (200 rpm) for 9 h. Aliquots were removed every hour to determine the culture turbidity using the spectrophotometer Philips PU 8800 (Pye Unican Ltd, Cambridge, UK). The combined antibiotic effect on bacterial growth was also determined using concentrations of LF in the presence of different concentrations of antibiotics. Briefly, a volume of 3 ml of fresh MHB containing desired concentration of drugs was adjusted to an optical density of 0.4 at 540 nm after an overnight culture. The culture was then incubated at 37° C with agitation (200 rpm). After incubation, aliquots were removed to determine the culture turbidity (OD540nm) or cfu/ml. To determine the influence of the level of iron on of the growth inhibition by the test compound, 5 μM of FeCl3 were added to the media.

For experiment [2], the system named is S. aureus ATCC 25923. In words: Bacterial growth in MHB. On the procedure:
as §1

In experiment [3] the test system is S. aureus strains SHY97-4242 and RFT-5. Put plainly: Bacterial growth in MHB. The protocol:
as §1

Experiment [4] deals with S. aureus RN 9. Put plainly: MIC of penicillin G alone or with bovine LF, macrodilution. The note with it: strain β-lactamase +C; for MIC: Staphylococcus aureus. The text has this: (§2) Staphylococcus aureus strains ATCC 25923 and 6538 and Escherichia coli ATCC 25922 were obtained from the American Type Culture Collection. Eight bovine mastitis clinical isolates of S. aureus (SHY97-3906, -3923, -4085 -4242, -4320 and -4343, RFT-1 and RFT-5) and one isolate of E. coli SHY97-3923-2 and one isolate of Kiebsiella pneumoniae SHY99-723-1 were kindly provided by the Laboratoire Provincial de Pathologie Animale of St-Hyacinthe and of Rock-Forest (Quebec, Canada), respectively. Nine β-lactam antibiotics resistant S. aureus strains (PC-1, NCTC 9789, 2076, 22260, ST79/741, 3804, RN9, FAR8, and FAR10) were obtained from Vanderbilt University School of Medicine (Nashville, Tenn., USA). All the culture media were from Difco Laboratories (Detroit, Mich.). Bacteria from frozen stock at −80° C. were streaked onto tryptic soy agar plates suplemented with 5% of defibrinated sheep blood (Quelab, Montreal, QC, Canada) or Brain Heart infusion agar plates. Plates were then incubated for 16 to 24 h at 37° C. For most experiments, the strains were subcultured onto Mueller Hinton agar plates (MHA) or broth (MHB) for an additional 16-20 h. Aqueous solutions of the tested products were added by filtration through a sterile filter assembly (pore size 0.2 μm, Fisher, Ottawa, Ontario).
(§3) The MICs were determined by both macrodilution (1 ml/tube) and microdilution (100 μl/well) in sterile 96 well microtiter plates (International Nunc, Napierville, Ill.) techniques in three separate experiments according to the National Committee for Clinical Laboratory Standards (1992 and 1999) in three separate experiments. Serial 2-fold dilutions in MHB of LF, LFC, antibiotic or combination of LF or LFC with antibiotic were inoculated with an overnight culture at a final inoculum of 10^6 cfu/ml in MHB. Effect of LF combination with antibiotic on MICs were determined by adding 0.5 mg or 1 mg/ml of LF to each antibiotic dilution. The MIC was defined as the lowest concentration of drug (highest dilution) that caused a complete inhibition of bacterial growth after an incubation of 18 h. Effect of LF or LFC combination with antibiotic on MIC was also determined by checkerboard method using 96 well microtiter plates. Each antibiotic dilution (50 μl) was serially added to the wells in vertical rows starting from the top (lower dilution) to the bottom. Lactoferrin or LFC (50 μl) were added to 50 μl of each antibiotic dilution and serially diluted starting at the left (lower dilution) to the right. After inoculation, the final concentration of antibiotic from top to bottom were 32 to 8, 2 to 0.5, 0.5 to 0.125 μg/ml for penicillin, cefazolin and neomycin, respectively. From left to right, the concentration of LF or LFC were 25 to 0.0244 mg/ml or 256 to 0.5 μg/ml respectively in a final volume of 100 μl/well. The microplate's were incubated at 37° C. for 24 h. Bacterial growth was measured optically at 540 nm using Spectra Max 250 Microplate Spectrophotometer System of Molecular Device (Fisher Scientific, Ottawa, Canada). Tubes were incubated at 37° C. for 18 h and bacterial growth was measured by visual examination and optically at 540 nm using a spectrophotometer (Philips PU 8800; Pye Unican Ltd, Cambridge, UK). The fractional inhibitory concentration (FIC) was calculated as described by Eliopoulos and Moellering (1991).

In experiment [5] the test system is S. aureus 22260. The experiment is described as above. Conditions: strain β-lactamase +B, read-out: MICs of penicillin G.
Source text: as §2, §3

Experiment [6] concerns S. aureus 3804^f. The description is as above. Conditions: strain β-lactamase +C; for MIC: Staphylococcus aureus.
Source text: as §2, §3

In experiment [7] the test system is S. aureus 2076. The experiment is described as above. Conditions: strain β-lactamase +A, read-out: MICs of penicillin G.
Source text: as §2, §3

Setting [8] is: sub-MIC penicillin G (1/4 to 1/16 MIC) with 1 mg/ml LF, P<0.01.

Each structure is given as a SMILES string. Read-outs that look alike come from different tables or passages of the source.

Consider `CC1(C)S[C@@H]2[C@H](NC(=O)Cc3ccccc3)C(=O)N2[C@H]1C(=O)O` [penicillin G, Penicillin G], for which the growth result in experiment [1] (penicillin G combined with 64 μg/ml LFC (⅛ MIC)) is listed as “Complete growth inhibition”; in experiment [2] (penicillin G combined with 32 μg/ml LFC (⅛ MIC)), “Complete growth inhibition”; in experiment [3] (penicillin G alone, P<0.001), “reduced the growth”. The growth rate entry is recorded as “did not significantly affect growth rate” in experiment [1] (sub-MIC of penicillin G alone), “important growth rate reductions” in experiment [1] (setting [8]) and “important growth rate reductions” in experiment [2] (setting [8]). In addition, the “effect of addition of iron on growth inhibition” value in experiment [3] (combination of penicillin to LF) is recorded as “did not affect”. Further, the “growth inhibitory activity of penicillin” value in experiment [3] (in the presence of LF, P<0.01) is recorded as “enhanced”. The “MICs of penicillin G” value in experiment [4] (+1 mg/ml LF) and in experiment [6] (+1 mg/ml LF) was 64 µg/mL in each case. Besides, the MIC was determined as 128 µg/mL in experiment [4] (RN9, read-out: MICs of penicillin G, Alone); 64 µg/mL in experiment [4] (RN9, +0.5 mg/ml LF, read-out: MICs of penicillin G); 16 µg/mL in experiment [5] (Staphylococcus aureus, 22260, +0.5 mg/ml LF); 16 µg/mL in experiment [5] (Staphylococcus aureus, 22260, +1 mg/ml LF); 32 µg/mL in experiment [5] (Staphylococcus aureus, 22260, Alone); 128 µg/mL in experiment [6] (read-out: MICs of penicillin G, Alone). For the same molecule, the MIC in experiment [6] (+0.5 mg/ml LF, read-out: MICs of penicillin G) amounted to 64 µg/mL; in experiment [7] (Staphylococcus aureus, 2076, +0.5 mg/ml LF) it was 0.25 µg/mL; in experiment [7] (Staphylococcus aureus, 2076, +1 mg/ml LF) it was 0.25 µg/mL; in experiment [7] (Staphylococcus aureus, 2076, Alone), 0.5 µg/mL.
